Test results reported in article PMC12395807, “Chemoreceptor family in plant-associated bacteria responds preferentially to the plant signal molecule glycerol 3-phosphate” (Genome Biology, 2025).

How the values were obtained:
[1] = biological target: ligand binding domain of the chemoreceptor ECA_RS12390 (PacP-LBD, R1, WP_011094075.1) (Pectobacterium atrosepticum, UniProt Q6D464); assay: ITC binding to PacP-LBD; details: 15 °C, Nb = no binding
Procedure: (§1) Plasmids for the overexpression of the different proteins were transformed into E. coli BL21(DE3). The resulting strains were grown under continuous stirring (200 rpm) at 30 °C in 2-L Erlenmeyer flasks containing 500 mL of LB medium supplemented with 50 μg/mL kanamycin. At an OD660 of 0.5, protein expression was induced by the addition of 0.1 mM isopropyl β-D-1-thiogalactopyranoside. Growth was continued at 16 °C overnight prior to cell harvesting by centrifugation at 10,000 × g for 20 min. Cell pellets were resuspended in buffer A (Additional file 2: Table S4) and subsequently broken by French press treatment at 62.5 lb/in^2. After centrifugation at 20,000 × g for 30 min, the supernatants were loaded onto 5-mL HisTrap HP columns (Amersham Biosciences) equilibrated with buffer A, and the proteins were eluted with a linear gradient of buffer B (Additional file 2: Table S4). All proteins contain a hexa-histidine tag at the N-terminal extension (Additional file 2: Table S3) and were purified at 4 °C. The purified proteins were dialyzed overnight into the corresponding analysis buffers (Additional file 2: Table S4) for immediate analysis.
(§2) All experiments were conducted on a VP microcalorimeter (Microcal, MA) at 15 °C for PacP-LBD and at 20 °C for the remaining proteins. Proteins were dialyzed into the analysis buffers specified in Additional file 2: Table S4, placed into the sample cell and titrated with aliquots of ligand solutions (1 to 10 mM) freshly prepared in dialysis buffer. The mean enthalpies measured from the injection of the ligands into the analysis buffer were subtracted from the raw titration data prior to data analysis with the MicroCal version of ORIGIN. The data were fitted with the “One binding site model” of ORIGIN.

[2] = biological target: LBD of chemoreceptor R4 (WP_158281851.1) (Rivihabitans pingtungensis, UniProt A0A318KJN4); assay: ITC binding to R4-LBD; set-up: species or system Rivicola pingtungensis; details: 20 °C, Nb = no binding
Procedure: as §1, §2

[3] = biological target: LBD of chemoreceptor R5 (WP_028444678.1); assay: ITC binding to R5-LBD; set-up: species or system Chitinimonas koreensis; details: 20 °C, Nb = no binding
Procedure: as §1, §2

[4] = biological target: LBD of chemoreceptor R6 (WP_174062248.1); assay: ITC binding to R6-LBD; set-up: species or system Agrobacterium larrymoorei; details: 20 °C, Nb = no binding
Procedure: as §1, §2

[5] = biological target: LBD of chemoreceptor R10 (WP_028866120.1); assay: ITC binding to R10-LBD; set-up: species or system Psychromonas aquimarina; details: 20 °C, Nb = no binding
Procedure: as §1, §2

[6] = tested on: ECA_RS12390-LBD (PacP-LBD); assay: Thermal shift ligand screening of PacP-LBD; format: binding, Pectobacterium atrosepticum; details: thermal shift assay, Biolog arrays PM1, PM2A, PM3B, PM4A
Procedure: Assays were carried out on a MyIQ2 Real-Time PCR instrument (Bio-Rad, Hercules, CA, USA). Ligand solutions were prepared by dissolving the array compounds in 50 µL of Milli-Q water, which, according to the manufacturer, corresponds to a concentration of 10–20 mM. Freshly purified proteins were dialyzed into analysis buffer (Additional file 2: Table S4). Compound arrays PM1, PM2A (carbon sources), PM3B (nitrogen sources), and PM4A (phosphorus and sulfur sources) from Biolog (https://www.biolog.com/) were used. The compositions of these arrays are provided in Additional file 2: Table S1. The experiments were conducted in 96-well plates, and each assay mixture contained 20 µL of the dialyzed protein (at 80–50 µM), 2 µL of 5 × SYPRO orange (Life Technologies, Eugene, Oregon, USA), and 2.5 µL of the resuspended array compound or the equivalent amount of buffer in the ligand-free control. The samples were heated from 23 to 85 °C at a scan rate of 1 °C/min. The protein unfolding curves were monitored by detecting changes in SYPRO® Orange fluorescence. The Tm values were determined from the first derivative values of the raw fluorescence data.

[7] = tested on: P. atrosepticum SCRI1043; assay: Quantitative capillary chemotaxis assay, wild type; format: cell-based, Pectobacterium atrosepticum; details: wild type SCRI1043, 1 mM ligand, 30 min
Procedure: (§3) Overnight cultures of P. atrosepticum SCRI1043 were grown at 30 °C in minimal medium. At an OD660 of 0.4–0.45, the cultures were washed twice with chemotaxis buffer (50 mM K2HPO4/KH2PO4, 20 μM EDTA, 0.05% (v/v) glycerol, pH 7.0) and diluted to an OD660 of 0.1 in the same buffer. Subsequently, 230 μL of the resulting bacterial suspension was placed into the wells of 96-well plates. One-microliter capillary tubes (P1424, Microcaps; Drummond Scientific) were heat-sealed at one end and filled with either chemotaxis buffer (negative control) or chemotaxis buffer containing PacP ligands at a concentration of 1 mM. The capillaries were immersed in the bacterial suspensions at their open ends. After 30 min at room temperature, the capillaries were removed from the bacterial suspensions, rinsed with sterile water, and the contents were expelled into 1 mL of 40 mM K2HPO4, 15 mM KH2PO4. Serial dilutions were plated onto minimal medium supplemented with 15 mM glucose as the carbon source. The number of colony-forming units was determined after 36 h of incubation at 30 °C. In all the cases, the data were corrected with the number of cells that swam into the buffer-containing capillaries.

[8] = tested on: P. atrosepticum SCRI1043 ΔcheA; assay: Quantitative capillary chemotaxis assay, cheA mutant; format: cell-based, Pectobacterium atrosepticum; details: 1 mM ligand
Procedure: as §3
Fig. S2) Quantitative capillary chemotaxis assays of different P. atrosepticum SCRI1043 strains to 1 mM Glycerol 3-phosphate (A) and 3-phosphoglycerate (B). […]

[9] = tested on: Bdellovibrio bacteriovorus; set-up: method as in PMID 119030, PMID 500565; details: cited from earlier work
[10] = tested on: Bacillus subtilis; set-up: method as in PMID 119030, PMID 500565; details: cited from earlier work

Sequence of ligand binding domain of the chemoreceptor ECA_RS12390 (PacP-LBD, R1, WP_011094075.1) (Q6D464 entry or part of it): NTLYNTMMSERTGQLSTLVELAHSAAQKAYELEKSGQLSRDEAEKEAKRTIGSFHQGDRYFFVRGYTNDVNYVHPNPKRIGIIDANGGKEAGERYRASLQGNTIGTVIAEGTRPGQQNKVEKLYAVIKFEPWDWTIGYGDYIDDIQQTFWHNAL
Sequence of LBD of chemoreceptor R4 (WP_158281851.1) (A0A318KJN4 entry or part of it): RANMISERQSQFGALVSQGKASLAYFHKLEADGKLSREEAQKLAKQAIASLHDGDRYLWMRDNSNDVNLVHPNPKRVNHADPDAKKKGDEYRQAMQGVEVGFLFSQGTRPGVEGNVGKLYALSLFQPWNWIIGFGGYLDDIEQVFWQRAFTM

O=C(O)[C@@H](O)COP(=O)(O)O [3-phosphoglycerate]
Kd [1]: 88 ± 5 µM | Kd [2]: 926 ± 8 µM | KD [3]: Nb | KD [4]: Nb | KD [5]: Nb | Tm change with respect to the ligand-free protein [6]: significant increases in Tm | chemotaxis (capillary assay) [7]: significantly greater | chemotaxis (capillary assay) [8]: failed to respond | chemotaxis [9]: weak chemotaxis | chemotaxis [10]: weak chemotaxis

O=P(O)(O)OCC(O)CO (stereo not drawn) [glycerol 3-phosphate]
Kd [1]: 3 ± 0.2 µM | Kd [2]: 7 ± 0.2 µM | KD [3]: Nb | KD [4]: Nb | KD [5]: Nb | Tm change with respect to the ligand-free protein [6]: significant increases in Tm | chemotaxis (capillary assay) [7]: significantly greater | chemotaxis (capillary assay) ([7]; listed as Glycerol 3-phosphate): strongest chemotaxis | chemotaxis (capillary assay) [8]: failed to respond | chemotaxis [9]: weak chemotaxis | chemotaxis [10]: weak chemotaxis
